Test results: the supplement of paper PMC10627819

Key:
S. aureus Newman = assay: Bliss interaction score (quartile over a dose matrix) (fitness difference); higher = more antagonism (negative = synergy)
How it was run: (§1)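 The Bliss score subtracts expected fitness, the product of the single-drug fitness values, from observed fitness. Fitness is plate-normalised OD595 at entry into stationary phase, relative to the robust no-drug mean and capped at 1, with single-drug fitness inferred from combinations. Summaries are quartiles over technical, biological and donor/recipient replicates.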

S. pneumoniae D39V = assay: as above
How it was run: as §1

S. aureus DSM 20231 = assay: as above
How it was run: as §1

B. subtilis 168 [1] = assay: as above
How it was run: as §1

B. subtilis 168 [2] = assay: fitness (endpoint OD595 vs no drug) (fraction); higher = more growth
How it was run: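 Fitness was defined as the optical density at the transition into stationary phase relative to the robust mean of no-drug control wells. Values were capped at 1. Cultures were started at OD595 0.01 in 384-well plates (30 µl, or 55 µl for S. pneumoniae) in TSB, LB Lennox or CY at 37 °C. OD595 was recorded every 30 min over 14 h, with the first reading subtracted as background.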
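Throughout, for Bliss interaction score (quartile over a dose matrix): first quartile when negative (synergy) and third quartile when positive (antagonism).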

CO[C@@H]1[C@@H](OC(N)=O)[C@@H](O)[C@H](Oc2ccc3c(O)c(NC(=O)c4ccc(O)c(CC=C(C)C)c4)c(=O)oc3c2C)OC1(C)C [Novobiocin] + COc1cc(Cc2cnc(N)nc2N)cc(OC)c1OC [Trimethoprim]
Settings | Bliss interaction score
B. subtilis 168 [1] | 0.136
S. aureus DSM 20231 | 0.134
S. aureus Newman | 0.0627
S. pneumoniae D39V | 0.0635

fitness, B. subtilis 168 [2]
Settings | first compound 0.0125 µg/mL | first compound 0.025 µg/mL | first compound 0.05 µg/mL | first compound 0.1 µg/mL | first compound 0.2 µg/mL
partner 0.25 µg/mL | – | – | – | – | 0.754
partner 0.5 µg/mL | 0.566 | 0.525 | 0.502 | 0.492 | 0.554

B. subtilis 168 [2], one replicate
Settings | fitness
first compound 0.0125 µg/mL, partner 1 µg/mL | 0.471
first compound 0.0125 µg/mL, partner 2 µg/mL | 0.386
first compound 0.025 µg/mL, partner 1 µg/mL | 0.451
first compound 0.025 µg/mL, partner 2 µg/mL | 0.386
first compound 0.05 µg/mL, partner 0.1 µg/mL | 0.947
first compound 0.05 µg/mL, partner 0.125 µg/mL | 0.759
first compound 0.05 µg/mL, partner 0.2 µg/mL | 0.794
first compound 0.05 µg/mL, partner 0.4 µg/mL | 0.546
first compound 0.05 µg/mL, partner 1 µg/mL | 0.521
first compound 0.05 µg/mL, partner 2 µg/mL | 0.354
first compound 0.1 µg/mL, partner 0.1 µg/mL | ≥ 1
first compound 0.1 µg/mL, partner 0.125 µg/mL | 0.77
first compound 0.1 µg/mL, partner 0.2 µg/mL | 0.797
first compound 0.1 µg/mL, partner 0.4 µg/mL | 0.52
first compound 0.125 µg/mL, partner 0.125 µg/mL | 0.835
first compound 0.125 µg/mL, partner 0.25 µg/mL | 0.56
first compound 0.125 µg/mL, partner 0.5 µg/mL | 0.479
first compound 0.2 µg/mL, partner 0.1 µg/mL | 0.978
first compound 0.2 µg/mL, partner 0.125 µg/mL | 0.757
first compound 0.2 µg/mL, partner 0.2 µg/mL | 0.826
first compound 0.2 µg/mL, partner 0.4 µg/mL | 0.474
first compound 0.25 µg/mL, partner 0.125 µg/mL | 0.565
first compound 0.25 µg/mL, partner 0.25 µg/mL | 0.459
first compound 0.25 µg/mL, partner 0.5 µg/mL | 0.45
first compound 0.5 µg/mL, partner 0.125 µg/mL | 0.424
first compound 0.5 µg/mL, partner 0.25 µg/mL | 0.376
first compound 0.5 µg/mL, partner 0.5 µg/mL | 0.406

CO[C@@H]1[C@@H](OC(N)=O)[C@@H](O)[C@H](Oc2ccc3c(O)c(NC(=O)c4ccc(O)c(CC=C(C)C)c4)c(=O)oc3c2C)OC1(C)C [Novobiocin] + COc1ccc(C[C@H](N)C(=O)N[C@H]2[C@@H](O)[C@H](n3cnc4c(N(C)C)ncnc43)O[C@@H]2CO)cc1 [Puromycin]
Settings | Bliss interaction score
B. subtilis 168 [1] | 0.0583
S. aureus DSM 20231 | -0.0356
S. aureus Newman | -0.0461
S. pneumoniae D39V | 0.105

fitness, B. subtilis 168 [2]
Settings | first compound 0.0125 µg/mL | first compound 0.025 µg/mL | first compound 0.05 µg/mL
partner 0.39 µg/mL | 0.948 | 0.948 | 0.973
partner 0.78 µg/mL | 0.954 | 0.964 | 0.938
partner 1.56 µg/mL | 0.956 | 0.907 | 0.971

fitness, B. subtilis 168 [2], one replicate
Settings | first compound 0.125 µg/mL | first compound 0.25 µg/mL | first compound 0.5 µg/mL
partner 0.39 µg/mL | 0.89 | 0.819 | 0.554
partner 0.78 µg/mL | 0.962 | 0.953 | 0.655
partner 1.56 µg/mL | 0.905 | 0.853 | 0.544
